# pEC50: −log10 of the molar value.
# Biological target: T1, hSTING (Homo sapiens, UniProt Q86WV6, G230A/H232R/R293Q/R71H)
# T1 construct: host or cells: THP1-Dual KO-IFNAR2 cells
# Experiment: STING reporter assay in THP1-Dual KO-IFNAR2 cells (2'3'cGAMP stimulation, luciferase reporter)
# Type: cell-based
# Conditions: 15 μM 2'3'cGAMP, 24 h, class symbols
# Description: STING pathway activation by the compounds described herein was measured using THP1-Dual™ cells (KO-IFNAR2).
# THP1-Dual™ KO-IFNAR2 Cells (obtained from invivogen) were maintained in RPMI, 10% FCS, 5 ml P/S, 2 mM L-glut, 10 mM Hepes, and 1 mM sodium pyruvate. Compounds were spotted in empty 384 well tissue culture plates (Greiner 781182) by Echo for a final concentration of 0.0017-100 μM. Cells were plated into the TC plates at 40 μL per well, 2×10E6 cells/mL. For activation with STING ligand, 2′3′cGAMP (MW 718.38, obtained from Invivogen), was prepared in Optimem media.
# The following solutions were prepared for each 1×384 plate: • Solution A: 2 mL Optimem with one of the following stimuli: • 60 μL of 10 mM 2′3′cGAMP→150 μM stock • Solution B: 2 mL Optimem with 60 μL Lipofectamine 2000→Incubate 5 min at RT
# 2 mL of solution A and 2 ml Solution B was mixed and incubated for 20 min at room temperature (RT). 20 μL of transfection solution (A+B) was added on top of the plated cells, with a final 2′3′cGAMP concentration of 15 μM. The plates were then centrifuged immediately at 340 g for 1 minute, after which they were incubated at 37° C., 5% CO2, >98% humidity for 24 h. Luciferase reporter activity was then measured. EC50 values were calculated by using standard methods known in the art.
# Luciferase reporter assay: 10 μL of supernatant from the assay was transferred to white 384-plate with flat bottom and squared wells. One pouch of QUANTI-Luc™ Plus was dissolved in 25 mL of water. 100 μL of QLC Stabilizer per 25 mL of QUANTI-Luc™ Plus solution was added. 50 μL of QUANTI-Luc™ Plus/QLC solution per well was then added. Luminescence was measured on a Platereader (e.g., Spectramax I3X (Molecular Devices GF3637001)).
# Luciferase reporter activity was then measured. EC50 values were calculated by using standard methods known in the art.
# T1 sequence (Q86WV6 whole entry R71H/G230A/H232R/R293Q): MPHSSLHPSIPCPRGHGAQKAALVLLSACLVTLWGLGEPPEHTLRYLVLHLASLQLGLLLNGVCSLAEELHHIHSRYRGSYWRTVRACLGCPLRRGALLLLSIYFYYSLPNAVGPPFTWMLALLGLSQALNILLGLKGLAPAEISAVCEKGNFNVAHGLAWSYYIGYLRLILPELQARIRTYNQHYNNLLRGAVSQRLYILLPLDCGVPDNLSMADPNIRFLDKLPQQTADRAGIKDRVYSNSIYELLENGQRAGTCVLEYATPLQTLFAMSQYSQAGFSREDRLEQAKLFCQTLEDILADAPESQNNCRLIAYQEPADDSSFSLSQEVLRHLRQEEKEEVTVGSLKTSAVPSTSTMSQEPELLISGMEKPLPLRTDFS
row,SMILES,pEC50
1,"N#Cc1cc(Cl)cc(Nc2cc(C#N)nc(Nc3ccc4cc[nH]c4c3)c2)c1 [Compound 135, 4-[(3-chloro-5-cyanophenyl)amino]-6-[(1H-indol-6-yl)amino]pyridine-2-carbonitrile]",6.00 to 6.70
2,"N#Cc1cc(Nc2cc(Cl)cc(Cl)c2)cc(Nc2ccc3cc[nH]c3c2)n1 [Compound 136, 4-[(3,5-dichlorophenyl)amino]-6-[(1H-indol-6-yl)amino]pyridine-2-carbonitrile]",6.00 to 6.70
3,"N#Cc1cc(Nc2cc(F)cc(F)c2)cc(Nc2ccc3cc[nH]c3c2)n1 [Compound 137, 4-[(3,5-difluorophenyl)amino]-6-[(1H-indol-6-yl)amino]pyridine-2-carbonitrile]",6.00 to 6.70
4,"N#Cc1cc(Nc2ccc(Cl)c(Cl)c2)cc(Nc2ccc3cc[nH]c3c2)n1 [Compound 138, 4-[(3,4-dichlorophenyl)amino]-6-[(1H-indol-6-yl)amino]pyridine-2-carbonitrile]",6.00 to 6.70
5,"N#Cc1cc(Nc2ccc(Cl)c(F)c2)cc(Nc2ccc3cc[nH]c3c2)n1 [Compound 139, 4-[(4-chloro-3-fluorophenyl)amino]-6-[(1H-indol-6-yl)amino]pyridine-2-carbonitrile]",6.00 to 6.70
6,"N#Cc1cc(Nc2ccc(F)c(Cl)c2)cc(Nc2ccc3cc[nH]c3c2)n1 [Compound 140, 6-((1H-indol-6-yl)amino)-4-((3-chloro-4-fluorophenyl)amino)picolinonitrile]",6.00 to 6.70
7,"N#Cc1cc(Nc2cncc(C(F)(F)F)c2)cc(Nc2ccc3cc[nH]c3c2)n1 [Compound 141, 6-[(1H-indol-6-yl)amino]-4-{[5-(trifluoromethyl)pyridin-3-yl]amino}pyridine-2-carbonitrile]",6.00 to 6.70
8,"N#Cc1cc(Nc2ccc3c(c2)CCC3)cc(Nc2ccc3cc[nH]c3c2)n1 [Compound 142, 4-[(2,3-dihydro-1H-inden-5-yl)amino]-6-[(1H-indol-6-yl)amino]pyridine-2-carbonitrile]",6.00 to 6.70
9,"N#Cc1cc(Nc2ccc3c(c2)OC(F)(F)C(F)(F)O3)cc(Nc2ccc3cc[nH]c3c2)n1 [Compound 143, 6-((1H-indol-6-yl)amino)-4-((2,2,3,3-tetrafluoro-2,3-dihydrobenzo[b][1,4]dioxin-6-yl)amino)picolinonitrile]",6.00 to 6.70
10,"N#Cc1cc(Nc2ccc3c(c2)OCCO3)cc(Nc2ccc3cc[nH]c3c2)n1 [Compound 144, 4-[(2,3-dihydro-1,4-benzodioxin-6-yl)amino]-6-[(1H-indol-6-yl)amino]pyridine-2-carbonitrile]",5.30 to 6.00
11,N#Cc1cc(Nc2ccc3cc[nH]c3c2)cc(Nc2ccc3cc[nH]c3c2)n1 [Compound 145],6.00 to 6.70
12,Fc1cnc(Nc2ccc3cc[nH]c3c2)cc1Nc1ccc2cc[nH]c2c1 [Compound 146],5.30 to 6.00
13,"N#Cc1cc(N2CCC(C(F)(F)F)CC2)cc(Nc2cc(Cl)c3cc[nH]c3c2)n1 [Compound 147, 6-[(4-chloro-1H-indol-6-yl)amino]-4-[4-(trifluoromethyl)piperidin-1-yl]pyridine-2-carbonitrile]",6.00 to 6.70
14,"N#Cc1cc(N2CCN(CC(F)(F)F)CC2)cc(Nc2cc(Cl)c3cc[nH]c3c2)n1 [Compound 148, 6-[(4-chloro-1H-indol-6-yl)amino]-4-[4-(2,2,2-trifluoroethyl)piperazin-1-yl]pyridine-2-carbonitrile]",5.30 to 6.00
15,"N#Cc1cc(N2CCC(Cc3ccc(F)cc3)CC2)cc(Nc2cc(Cl)c3cc[nH]c3c2)n1 [Compound 149, 6-[(4-chloro-1H-indol-6-yl)amino]-4-{4-[(4-fluorophenyl)methyl]piperidin-1-yl}pyridine-2-carbonitrile]",6.00 to 6.70
16,"COc1cc(Nc2cc(C#N)nc(Nc3cc(Cl)c4cc[nH]c4c3)c2)cnc1Cl [Compound 150, 6-[(4-chloro-1H-indol-6-yl)amino]-4-[(6-chloro-5-methoxypyridin-3-yl)amino]pyridine-2-carbonitrile]",6.00 to 6.70
17,"N#Cc1cc(N2CCC(Cc3ccccc3)CC2)cc(Nc2cc(Cl)c3cc[nH]c3c2)n1 [Compound 151, 4-(4-benzylpiperidin-1-yl)-6-[(4-chloro-1H-indol-6-yl)amino]pyridine-2-carbonitrile]",6.00 to 6.70

row,SMILES,pEC50
1,"CN1CCN(c2cc(C#N)nc(Nc3cc(Cl)c4cc[nH]c4c3)c2)CC1 [Compound 152, 6-[(4-chloro-1H-indol-6-yl)amino]-4-(4-methylpiperazin-1-yl)pyridine-2-carbonitrile]",4.00 to 5.30
2,"N#Cc1cc(Nc2ccc(OCC(F)(F)F)nc2)cc(Nc2cc(Cl)c3cc[nH]c3c2)n1 [Compound 153, 6-[(4-chloro-1H-indol-6-yl)amino]-4-{[6-(2,2,2-trifluoroethoxy)pyridin-3-yl]amino}pyridine 2-carbonitrile]",6.70 to 7.40
3,"N#Cc1cc(Nc2ccc(Cl)c(Cl)c2)cc(Nc2cc(Cl)c3cc[nH]c3c2)n1 [Compound 154, 6-[(4-chloro-1H-indol-6-yl)amino]-4-[(3,4-dichlorophenyl)amino]pyridine-2-carbonitrile]",6.70 to 7.40
4,"N#Cc1cc(N2CCC(Oc3ccccc3)CC2)cc(Nc2cc(Cl)c3cc[nH]c3c2)n1 [Compound 155, 6-[(4-chloro-1H-indol-6-yl)amino]-4-(4-phenoxypiperidin-1-yl)pyridine-2-carbonitrile]",6.00 to 6.70
5,"COC1CCN(c2cc(C#N)nc(Nc3cc(Cl)c4cc[nH]c4c3)c2)CC1 [Compound 156, 6-[(4-chloro-1H-indol-6-yl)amino]-4-(4-methoxypiperidin-1-yl)pyridine-2-carbonitrile]",5.30 to 6.00
6,"CC(C)CN1CCN(c2cc(C#N)nc(Nc3cc(Cl)c4cc[nH]c4c3)c2)CC1 [Compound 157, 6-[(4-chloro-1H-indol-6-yl)amino]-4-[4-(2-methylpropyl)piperazin-1-yl]pyridine-2-carbonitrile]",5.30 to 6.00
7,"N#Cc1cc(Nc2cncc(F)c2)cc(Nc2cc(Cl)c3cc[nH]c3c2)n1 [Compound 158, 6-[(4-chloro-1H-indol-6-yl)amino]-4-[(5-fluoropyridin-3-yl)amino]pyridine-2-carbonitrile]",6.00 to 6.70
8,"N#Cc1cc(Nc2ccc(C(F)(F)F)c(F)c2)cc(Nc2cc(Cl)c3cc[nH]c3c2)n1 [Compound 159, 6-[(4-chloro-1H-indol-6-yl)amino]-4-{[3-fluoro-4-(trifluoromethyl)phenyl]amino}pyridine-2-carbonitrile]",6.70 to 7.40
9,"CC1(C)CCN(c2cc(C#N)nc(Nc3cc(Cl)c4cc[nH]c4c3)c2)CC1 [Compound 160, 6-[(4-chloro-1H-indol-6-yl)amino]-4-(4,4-dimethylpiperidin-1-yl)pyridine-2-carbonitrile]",6.00 to 6.70
10,"N#Cc1cc(N2CCOCC2)cc(Nc2cc(Cl)c3cc[nH]c3c2)n1 [Compound 161, 6-[(4-chloro-1H-indol-6-yl)amino]-4-(morpholin-4-yl)pyridine-2-carbonitrile]",5.30 to 6.00
11,"CC(C)c1cncc(Nc2cc(C#N)nc(Nc3cc(Cl)c4cc[nH]c4c3)c2)c1 [Compound 162, 6-[(4-chloro-1H-indol-6-yl)amino]-4-{[5-(propan-2-yl)pyridin-3-yl]amino}pyridine-2-carbonitrile]",6.00 to 6.70
12,"CC(C)(C)c1cncc(Nc2cc(C#N)nc(Nc3cc(Cl)c4cc[nH]c4c3)c2)c1 [Compound 163, 4-[(5-tert-butylpyridin-3-yl)amino]-6-[(4-chloro-1H-indol-6-yl)amino]pyridine-2-carbonitrile]",6.00 to 6.70
13,"N#Cc1cc(Nc2cc(Cl)cc(Cl)c2)cc(Nc2cc(Cl)c3cc[nH]c3c2)n1 [Compound 164, 6-[(4-chloro-1H-indol-6-yl)amino]-4-[(3,5-dichlorophenyl)amino]pyridine-2-carbonitrile]",6.00 to 6.70
14,"N#Cc1cc(Nc2ccc(Cl)c(F)c2)cc(Nc2cc(Cl)c3cc[nH]c3c2)n1 [Compound 165, 6-[(4-chloro-1H-indol-6-yl)amino]-4-[(4-chloro-3-fluorophenyl)amino]pyridine-2-carbonitrile]",6.70 to 7.40
15,"COc1ccc(Nc2cc(C#N)nc(Nc3cc(Cl)c4cc[nH]c4c3)c2)cn1 [Compound 166, 6-[(4-chloro-1H-indol-6-yl)amino]-4-[(6-methoxypyridin-3-yl)amino]pyridine-2-carbonitrile]",6.00 to 6.70
16,"N#Cc1cc(Nc2cc(Cl)cc(OC(F)(F)F)c2)cc(Nc2cc(Cl)c3cc[nH]c3c2)n1 [Compound 167, 6-[(4-chloro-1H-indol-6-yl)amino]-4-{[3-chloro-5-(trifluoromethoxy)phenyl]amino}pyridine-2-carbonitrile]",6.00 to 6.70
17,"N#Cc1cc(Nc2ccc(F)c(F)c2)cc(Nc2cc(Cl)c3cc[nH]c3c2)n1 [Compound 168, 6-[(4-chloro-1H-indol-6-yl)amino]-4-[(3,4-difluorophenyl)amino]pyridine-2-carbonitrile]",6.70 to 7.40
